According to ChEMBL document CHEMBL3627608, “Crystal structures of human RIP2 kinase catalytic domain complexed with ATP-competitive inhibitors: Foundations for understanding inhibitor selectivity” (Bioorg Med Chem, 2015):

Columns and labels:
[1] = target: Receptor-type tyrosine-protein kinase FLT3 (Homo sapiens) (UniProt P36888); assay: Inhibition of FLT3 (unknown origin) at 10 uM after 120 mins P33 radiolabeled kinase activity assay
[2] = target: Non-receptor tyrosine-protein kinase TYK2 (Homo sapiens) (UniProt P29597); assay: Inhibition of TYK2 (unknown origin) at 10 uM after 120 mins P33 radiolabeled kinase activity assay
[3] = target: Aurora kinase B (Homo sapiens) (UniProt Q96GD4); assay: Inhibition of Aurora B (unknown origin) at 10 uM after 120 mins P33 radiolabeled kinase activity assay
[4] = target: T1, Mitogen-activated protein kinase kinase kinase 7 (Homo sapiens) (UniProt O43318); assay: Inhibition of TAK1 (unknown origin) at 10 uM after 120 mins P33 radiolabeled kinase activity assay
T1 sequence (whole entry): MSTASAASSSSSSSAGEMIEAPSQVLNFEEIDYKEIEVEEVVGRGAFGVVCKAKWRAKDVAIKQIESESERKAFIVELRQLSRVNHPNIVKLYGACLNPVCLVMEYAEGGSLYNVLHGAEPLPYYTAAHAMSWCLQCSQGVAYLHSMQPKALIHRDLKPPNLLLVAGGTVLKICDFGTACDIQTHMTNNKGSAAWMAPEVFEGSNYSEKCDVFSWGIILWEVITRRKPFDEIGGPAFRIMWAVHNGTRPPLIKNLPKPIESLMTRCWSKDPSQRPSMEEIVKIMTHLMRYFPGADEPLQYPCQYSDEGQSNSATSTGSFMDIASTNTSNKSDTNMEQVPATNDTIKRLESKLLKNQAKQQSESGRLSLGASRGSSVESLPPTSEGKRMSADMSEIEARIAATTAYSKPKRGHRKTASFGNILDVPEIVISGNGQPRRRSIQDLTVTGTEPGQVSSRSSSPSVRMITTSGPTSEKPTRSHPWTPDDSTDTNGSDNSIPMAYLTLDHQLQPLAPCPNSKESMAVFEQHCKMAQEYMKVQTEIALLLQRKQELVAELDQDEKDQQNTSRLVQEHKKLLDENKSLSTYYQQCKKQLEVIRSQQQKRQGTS

[5] = target: Homeodomain-interacting protein kinase 1 (Homo sapiens) (UniProt Q86Z02); assay: Inhibition of HIPK1 (unknown origin) at 10 uM after 120 mins P33 radiolabeled kinase activity assay
[6] = target: Serine/threonine-protein kinase SIK3 (Homo sapiens) (UniProt Q9Y2K2); assay: Inhibition of SIK3 (unknown origin) at 10 uM after 120 mins P33 radiolabeled kinase activity assay
[7] = target: T2, Mitogen-activated protein kinase 15 (Homo sapiens) (UniProt Q8TD08); assay: Inhibition of ERK7 (unknown origin) at 10 uM after 120 mins P33 radiolabeled kinase activity assay
T2 sequence (whole entry): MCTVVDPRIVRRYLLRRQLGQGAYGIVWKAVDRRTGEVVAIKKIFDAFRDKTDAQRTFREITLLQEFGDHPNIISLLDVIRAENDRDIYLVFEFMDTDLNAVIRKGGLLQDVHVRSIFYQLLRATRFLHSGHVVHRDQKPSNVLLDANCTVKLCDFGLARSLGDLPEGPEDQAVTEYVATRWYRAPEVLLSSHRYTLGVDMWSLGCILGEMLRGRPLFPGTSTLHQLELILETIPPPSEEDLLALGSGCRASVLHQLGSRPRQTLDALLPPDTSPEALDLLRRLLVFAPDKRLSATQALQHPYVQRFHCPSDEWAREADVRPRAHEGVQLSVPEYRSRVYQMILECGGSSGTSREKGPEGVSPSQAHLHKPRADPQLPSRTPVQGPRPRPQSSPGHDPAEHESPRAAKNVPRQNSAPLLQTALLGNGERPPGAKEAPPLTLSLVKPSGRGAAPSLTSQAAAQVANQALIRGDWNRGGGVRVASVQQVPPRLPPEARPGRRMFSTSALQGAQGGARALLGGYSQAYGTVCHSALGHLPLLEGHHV

[8] = target: Casein kinase I isoform gamma-1 (Homo sapiens) (UniProt Q9HCP0); assay: Inhibition of CK1gamma1 (unknown origin) at 10 uM after 120 mins P33 radiolabeled kinase activity assay
[9] = target: Receptor-interacting serine/threonine-protein kinase 2 (Homo sapiens, UniProt O43353); assay: Inhibition of full-length FLAG-6His-TEV tagged human RIP2 expressed in Sf9 cells assessed as dissociation rate by fluorescent polarization assay
[10] = target: Activated CDC42 kinase 1 (Homo sapiens) (UniProt Q07912); assay: Inhibition of ACK1 (unknown origin) at 10 uM after 120 mins P33 radiolabeled kinase activity assay
[11] = target: STE20-like serine/threonine-protein kinase (Homo sapiens) (UniProt Q9H2G2); assay: Inhibition of SLK (unknown origin) at 10 uM after 120 mins P33 radiolabeled kinase activity assay
[12] = target: Protein kinase C gamma type (Homo sapiens) (UniProt P05129); assay: Inhibition of PKCgamma (unknown origin) at 10 uM after 120 mins P33 radiolabeled kinase activity assay
[13] = target: Mast/stem cell growth factor receptor Kit (Homo sapiens) (UniProt P10721); assay: Inhibition of c-Kit (unknown origin) at 10 uM after 120 mins P33 radiolabeled kinase activity assay
[14] = target: Protein kinase C alpha type (Homo sapiens) (UniProt P17252); assay: Inhibition of PKCalpha (unknown origin) at 10 uM after 120 mins P33 radiolabeled kinase activity assay
[15] = target: Vascular endothelial growth factor receptor 1 (Homo sapiens) (UniProt P17948); assay: Inhibition of FLT1 (unknown origin) at 10 uM after 120 mins P33 radiolabeled kinase activity assay
[16] = target: Bone morphogenetic protein receptor type-1A (Homo sapiens) (UniProt P36894); assay: Inhibition of ALK3 (unknown origin) at 10 uM after 120 mins P33 radiolabeled kinase activity assay
[17] = target: Serine/threonine-protein kinase pim-2 (Homo sapiens) (UniProt Q9P1W9); assay: Inhibition of PIM2 (unknown origin) at 10 uM after 120 mins P33 radiolabeled kinase activity assay
[18] = target: Serine/threonine-protein kinase NIM1 (Homo sapiens) (UniProt Q8IY84); assay: Inhibition of NIM1 (unknown origin) at 10 uM after 120 mins P33 radiolabeled kinase activity assay
[19] = target: Tyrosine-protein kinase ABL2 (Homo sapiens) (UniProt P42684); assay: Inhibition of ABL2 (unknown origin) at 10 uM after 120 mins P33 radiolabeled kinase activity assay
Tyrosine-protein kinase ABL2 (Homo sapiens), sequence (P42684 whole entry): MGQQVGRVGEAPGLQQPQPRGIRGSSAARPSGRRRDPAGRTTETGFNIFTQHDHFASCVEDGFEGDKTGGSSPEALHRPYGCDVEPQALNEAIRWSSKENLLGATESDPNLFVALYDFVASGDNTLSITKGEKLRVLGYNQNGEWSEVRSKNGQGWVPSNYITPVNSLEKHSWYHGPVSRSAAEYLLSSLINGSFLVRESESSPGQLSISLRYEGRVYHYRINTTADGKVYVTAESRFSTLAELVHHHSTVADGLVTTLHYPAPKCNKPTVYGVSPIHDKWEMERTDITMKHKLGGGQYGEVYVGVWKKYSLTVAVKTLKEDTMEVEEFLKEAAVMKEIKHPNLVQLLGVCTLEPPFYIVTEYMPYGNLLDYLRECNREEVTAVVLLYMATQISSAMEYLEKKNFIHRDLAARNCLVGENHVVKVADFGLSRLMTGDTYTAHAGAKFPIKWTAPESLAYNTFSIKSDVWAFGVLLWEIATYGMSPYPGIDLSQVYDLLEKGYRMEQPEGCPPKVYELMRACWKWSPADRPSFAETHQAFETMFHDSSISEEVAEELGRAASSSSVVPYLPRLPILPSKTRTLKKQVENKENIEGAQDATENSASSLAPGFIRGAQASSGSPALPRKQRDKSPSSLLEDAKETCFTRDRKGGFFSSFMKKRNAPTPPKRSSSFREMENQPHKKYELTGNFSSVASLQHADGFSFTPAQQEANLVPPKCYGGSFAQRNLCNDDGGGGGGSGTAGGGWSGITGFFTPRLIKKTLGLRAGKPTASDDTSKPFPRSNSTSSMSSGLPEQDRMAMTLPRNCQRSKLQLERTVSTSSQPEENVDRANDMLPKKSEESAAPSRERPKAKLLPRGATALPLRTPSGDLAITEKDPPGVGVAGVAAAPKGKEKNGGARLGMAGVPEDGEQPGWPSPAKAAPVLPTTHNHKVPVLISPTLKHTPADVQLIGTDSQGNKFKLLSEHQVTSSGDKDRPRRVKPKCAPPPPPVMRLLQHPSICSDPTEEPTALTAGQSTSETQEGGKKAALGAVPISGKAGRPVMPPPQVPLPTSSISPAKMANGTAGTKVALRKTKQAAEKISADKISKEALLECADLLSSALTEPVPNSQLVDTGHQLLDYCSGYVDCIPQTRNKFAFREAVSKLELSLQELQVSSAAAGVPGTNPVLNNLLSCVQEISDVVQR

Serine/threonine-protein kinase pim-2 (Homo sapiens), sequence (Q9P1W9 whole entry, looked up): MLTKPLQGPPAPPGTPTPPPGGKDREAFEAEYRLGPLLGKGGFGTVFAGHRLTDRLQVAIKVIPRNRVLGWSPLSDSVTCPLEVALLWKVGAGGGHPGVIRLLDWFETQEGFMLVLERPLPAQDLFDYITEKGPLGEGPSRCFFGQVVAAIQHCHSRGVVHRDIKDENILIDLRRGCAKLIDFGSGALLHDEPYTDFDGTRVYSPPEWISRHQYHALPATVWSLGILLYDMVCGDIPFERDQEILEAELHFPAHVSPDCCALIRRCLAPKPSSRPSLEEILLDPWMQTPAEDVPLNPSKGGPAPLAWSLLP
Casein kinase I isoform gamma-1 (Homo sapiens), sequence (Q9HCP0 whole entry, looked up, canonical isoform): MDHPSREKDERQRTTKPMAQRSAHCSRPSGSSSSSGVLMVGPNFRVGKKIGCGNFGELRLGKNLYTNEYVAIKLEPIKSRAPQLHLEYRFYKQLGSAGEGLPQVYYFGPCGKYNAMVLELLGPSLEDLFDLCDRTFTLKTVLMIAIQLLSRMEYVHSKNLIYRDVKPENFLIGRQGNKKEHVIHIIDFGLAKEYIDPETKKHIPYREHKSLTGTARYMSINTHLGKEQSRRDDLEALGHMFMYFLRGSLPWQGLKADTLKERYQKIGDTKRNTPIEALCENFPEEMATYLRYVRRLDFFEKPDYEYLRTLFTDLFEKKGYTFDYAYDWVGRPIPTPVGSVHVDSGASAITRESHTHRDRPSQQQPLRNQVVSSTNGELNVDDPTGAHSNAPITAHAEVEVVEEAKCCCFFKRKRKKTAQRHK
Bone morphogenetic protein receptor type-1A (Homo sapiens), sequence (P36894 whole entry): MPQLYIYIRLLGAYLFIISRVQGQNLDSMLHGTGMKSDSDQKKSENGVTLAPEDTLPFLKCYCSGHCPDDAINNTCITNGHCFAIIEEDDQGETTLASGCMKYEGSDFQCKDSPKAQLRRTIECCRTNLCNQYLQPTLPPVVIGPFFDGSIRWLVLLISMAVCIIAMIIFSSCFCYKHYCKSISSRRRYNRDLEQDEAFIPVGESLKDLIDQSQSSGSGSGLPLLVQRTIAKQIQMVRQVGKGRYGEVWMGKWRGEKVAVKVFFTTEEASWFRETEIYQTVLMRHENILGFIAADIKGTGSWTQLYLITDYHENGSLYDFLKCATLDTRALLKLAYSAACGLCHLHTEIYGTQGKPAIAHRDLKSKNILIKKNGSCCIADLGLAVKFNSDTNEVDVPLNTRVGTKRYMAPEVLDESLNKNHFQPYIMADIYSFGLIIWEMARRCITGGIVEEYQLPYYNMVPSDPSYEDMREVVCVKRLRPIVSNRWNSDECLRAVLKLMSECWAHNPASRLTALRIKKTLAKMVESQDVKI
Serine/threonine-protein kinase SIK3 (Homo sapiens), sequence (Q9Y2K2 whole entry, looked up): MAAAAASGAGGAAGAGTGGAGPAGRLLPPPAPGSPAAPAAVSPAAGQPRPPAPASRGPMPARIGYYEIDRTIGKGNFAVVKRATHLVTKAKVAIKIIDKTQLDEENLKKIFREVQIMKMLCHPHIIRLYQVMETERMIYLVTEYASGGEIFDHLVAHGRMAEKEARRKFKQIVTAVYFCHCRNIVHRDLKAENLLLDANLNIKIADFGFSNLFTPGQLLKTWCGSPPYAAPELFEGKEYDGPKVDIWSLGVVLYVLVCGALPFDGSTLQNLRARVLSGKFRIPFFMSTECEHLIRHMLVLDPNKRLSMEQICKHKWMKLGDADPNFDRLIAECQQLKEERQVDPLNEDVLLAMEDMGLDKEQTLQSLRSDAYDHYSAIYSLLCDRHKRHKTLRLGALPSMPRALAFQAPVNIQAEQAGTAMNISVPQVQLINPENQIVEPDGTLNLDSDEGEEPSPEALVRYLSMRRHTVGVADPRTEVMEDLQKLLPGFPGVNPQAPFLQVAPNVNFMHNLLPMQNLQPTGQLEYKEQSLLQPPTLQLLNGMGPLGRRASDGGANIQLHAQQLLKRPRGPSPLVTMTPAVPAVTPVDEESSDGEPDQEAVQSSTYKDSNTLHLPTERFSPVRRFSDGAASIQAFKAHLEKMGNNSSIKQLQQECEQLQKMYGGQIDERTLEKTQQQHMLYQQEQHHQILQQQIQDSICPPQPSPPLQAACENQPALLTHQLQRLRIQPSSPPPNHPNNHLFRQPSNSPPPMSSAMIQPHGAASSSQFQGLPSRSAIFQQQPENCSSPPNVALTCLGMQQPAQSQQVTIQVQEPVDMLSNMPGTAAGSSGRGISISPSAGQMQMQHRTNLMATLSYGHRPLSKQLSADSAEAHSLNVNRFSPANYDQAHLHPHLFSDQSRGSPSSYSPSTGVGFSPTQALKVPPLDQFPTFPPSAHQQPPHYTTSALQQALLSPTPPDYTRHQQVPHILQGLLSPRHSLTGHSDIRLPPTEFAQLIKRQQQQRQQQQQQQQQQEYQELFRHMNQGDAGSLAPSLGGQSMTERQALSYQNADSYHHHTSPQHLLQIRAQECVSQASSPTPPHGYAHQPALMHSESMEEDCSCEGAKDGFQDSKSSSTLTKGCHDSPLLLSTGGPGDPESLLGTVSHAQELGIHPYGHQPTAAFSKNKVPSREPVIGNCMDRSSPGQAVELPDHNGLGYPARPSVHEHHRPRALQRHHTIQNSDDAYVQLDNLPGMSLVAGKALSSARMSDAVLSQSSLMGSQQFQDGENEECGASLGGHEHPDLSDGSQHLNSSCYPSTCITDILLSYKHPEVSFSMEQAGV
Aurora kinase B (Homo sapiens), sequence (Q96GD4 whole entry): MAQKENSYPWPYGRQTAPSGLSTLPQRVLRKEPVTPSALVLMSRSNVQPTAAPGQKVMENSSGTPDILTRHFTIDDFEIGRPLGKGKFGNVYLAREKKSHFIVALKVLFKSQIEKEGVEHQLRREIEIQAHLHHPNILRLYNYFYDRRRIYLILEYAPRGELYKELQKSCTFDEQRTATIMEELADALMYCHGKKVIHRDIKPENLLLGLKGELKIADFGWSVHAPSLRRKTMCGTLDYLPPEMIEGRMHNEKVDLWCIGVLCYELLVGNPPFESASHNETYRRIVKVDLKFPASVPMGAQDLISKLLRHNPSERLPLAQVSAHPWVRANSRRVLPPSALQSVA

Compound	inhibition [1] [%]	inhibition [2] [%]	inhibition [3] [%]	inhibition [4] [%]	inhibition [5] [%]	inhibition [6] [%]	inhibition [7] [%]	inhibition [8] [%]	K [9] [s⁻¹]	inhibition [10] [%]	inhibition [11] [%]	inhibition [12] [%]	inhibition [13] [%]	inhibition [14] [%]	inhibition [15] [%]	inhibition [16] [%]	inhibition [17] [%]	inhibition [18] [%]	inhibition [19] [%]
COCCNC(=O)c1ccc2c(c1)nc(-c1cnc(-c3ccc(Cl)cc3)[nH]1)n2CCOC	27.6	13.2	6.36	6.56	-8.42	6.53	0.89	7.23	0.12	16.4	31.2	4.86	5.79	-4.59	0.33	-9.9	0.63	3.72	59.3
CS(=O)(=O)c1cccc(Nc2nccc(-c3sc(N4CCOCC4)nc3-c3cccc(NS(=O)(=O)c4c(F)cccc4F)c3)n2)c1	95.7	54.8	82.1	83	81.1	99.6	87	35.1	0.000147	96.5	86	10.9	77.7	-5.32	98	75.5	6.09	5.74	99.8
CC(C)(C)c1cc(NC(=O)Nc2ccc(Oc3ccncc3)cc2)no1	98.6	9.99	49.2	83.8	8.52	9.52	99.8	6.78	0.000135	21.6	73	2.25	84.9	-7.51	97.5	-6.2	3.72	4.76	90.1
